Experimental data published in the supplement of paper PMC10331698.
± gives the standard deviation of the averaged measurements.

What was measured:
Test in all cases: level (log10 ratio to DMSO vehicle control); higher = higher biomarker level / cell amount than vehicle control
[1] = compound: O=C(O)CCC(F)(C(F)(F)F)C(F)(F)F [4,4-bis(Trifluoromethyl)-4-fluoropropanoic acid] (in DMSO)
Experimental: (§1)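 BioMAP Diversity Plus panel of 12 human primary cell co-culture systems (3C, 4H, LPS, SAg, BT, BF4T, BE3C, CASM3C, HDF3CGF, KF3CT, MyoF, Mphg). Compounds were added 1 h before stimulation and left for 24 h (MyoF 48 h; BT 72 h for soluble read-outs or 6 d for IgG). Biomarkers were read by ELISA, cytotoxicity by SRB, PBMC viability and proliferation by Alamar Blue. Each well value was divided by the mean of 8 DMSO control wells on the same plate and log10 transformed; duplicate blinded samples were tested at 4 concentrations.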

[2] = compound: O=C(O)C(F)(F)C(F)(F)C(F)(F)OC(F)(F)F [Perfluoro(4-methoxybutanoic) acid] (in DMSO)
Experimental: as §1

[3] = compound: OCC(F)(F)C(F)(F)C(F)(F)C(F)F [1H,1H,5H-Perfluoropentanol] (in DMSO)
Experimental: as §1

[4] = compound: OCC(F)(F)OC(F)(F)C(F)(F)OC(F)(F)C(F)(F)OC(F)(F)CO [1H,1H,11H,11H-Perfluorotetraethylene glycol] (in DMSO)
Experimental: as §1

Perfluoroundecanoic acid = compound: O=C(O)C(F)(F)C(F)(F)C(F)(F)C(F)(F)C(F)(F)C(F)(F)C(F)(F)C(F)(F)C(F)(F)C(F)(F)F [Perfluoroundecanoic acid] (in DMSO); conditions: 6700 nM
Experimental: as §1

Perfluorononanoic acid = compound: O=C(O)C(F)(F)C(F)(F)C(F)(F)C(F)(F)C(F)(F)C(F)(F)C(F)(F)C(F)(F)F [Perfluorononanoic acid] (in DMSO)
Experimental: as §1

[5] = compound: C[C@@H]1C[C@H]2[C@@H]3CCC4=CC(=O)C=C[C@]4(C)[C@@]3(F)[C@@H](O)C[C@]2(C)[C@@]1(O)C(=O)COP(=O)(O)O [Dexamethasone sodium phosphate] (in DMSO)
Experimental: as §1

| Test System | level (log10) ([1]; 6700 nM) | level (log10) ([1]; 20000 nM) | level (log10) ([1]; 60000 nM) | level (log10) ([2]; 6700 nM) | level (log10) ([2]; 20000 nM) | level (log10) ([2]; 60000 nM) | level (log10) ([3]; 6700 nM) | level (log10) ([3]; 20000 nM) | level (log10) ([3]; 60000 nM) | level (log10) ([4]; 6700 nM) | level (log10) ([4]; 20000 nM) | level (log10) ([4]; 60000 nM) | level (log10) (Perfluoroundecanoic acid) | level (log10) (Perfluorononanoic acid; 6700 nM) | level (log10) (Perfluorononanoic acid; 20000 nM) | level (log10) ([5]; 1500 nM) | level (log10) ([5]; 4400 nM) | level (log10) ([5]; 13000 nM) | level (log10) ([5]; 40000 nM) |
| --- | --- | --- | --- | --- | --- | --- | --- | --- | --- | --- | --- | --- | --- | --- | --- | --- | --- | --- | --- |
| BE3C:CXCL8/IL-8 | -0.0055 ± 0.011 | -0.025 ± 0.033 | -0.019 ± 0.033 | 0.0325 ± 0.028 | 0.0325 ± 0.016 | 0.0655 ± 0.042 | -0.0065 ± 0.077 | 0.0185 ± 0.12 | 0.0875 ± 0.12 | -0.0165 ± 0.0035 | -0.071 ± 0.033 | -0.0405 ± 0.056 | -0.113 | -0.03 ± 0.0057 | -0.175 ± 0.0042 | -0.094 ± 0.044 | -0.137 ± 0.015 | -0.171 ± 0.0092 | -0.157 ± 0.011 |
| BE3C:CXCL9/MIG | -0.01 ± 0.014 | -0.0085 ± 0.022 | -0.0135 ± 0.016 | 0.0005 ± 0.013 | -0.006 ± 0.016 | -0.0005 ± 0.00071 | -0.0075 ± 0.012 | 0.0135 ± 0.0092 | 0.013 ± 0.018 | -0.005 ± 0.0042 | 0.004 ± 0.0071 | -0.0355 ± 0.015 | -0.0125 ± 0.0064 | -0.019 ± 0.013 | -0.0195 ± 0.0021 | -0.0065 ± 0.019 | 0.003 ± 0.02 | -0.01 ± 0.014 | -0.0085 ± 0.00071 |
| BE3C:CXCL10/IP-10 | 0.006 ± 0.034 | 0.0035 ± 0.023 | -0.0045 ± 0.0035 | -0.0045 ± 0.0078 | -0.001 ± 0.0085 | 0.0045 ± 0.0035 | -0.0015 ± 0.016 | 0.005 ± 0.017 | 0.0165 ± 0.042 | -0.012 ± 0.0028 | -0.0315 ± 0.021 | -0.167 ± 0.028 | -0.4655 ± 0.0021 | -0.039 ± 0.025 | -0.145 ± 0.031 | 0.0215 ± 0.021 | 0.014 ± 0.028 | 0 ± 0.02 | -0.0035 ± 0.016 |
| BE3C:CXCL11/I-TAC | 0.0195 ± 0.016 | 0.0015 ± 0.012 | -0.006 ± 0.0099 | 0.011 ± 0.018 | 0.008 ± 0.0085 | 0.0135 ± 0.0092 | 0.003 ± 0.017 | 0.0165 ± 0.028 | 0.0315 ± 0.046 | -0.0135 ± 0.0021 | -0.03 ± 0.0028 | -0.092 ± 0.028 | -0.114 ± 0.047 | -0.01 ± 0.016 | -0.0315 ± 0.044 | 0 ± 0.018 | 0.0145 ± 0.0021 | -0.0175 ± 0.04 | -0.0215 ± 0.0078 |
| BE3C:EGFR | 0.003 ± 0.02 | -0.0105 ± 0.018 | -0.012 ± 0.014 | 0.016 ± 0.0071 | 0.0035 ± 0.015 | 0.009 ± 0.016 | -0.008 ± 0.0099 | 0.0105 ± 0.011 | 0.032 ± 0.065 | 0.0055 ± 0.011 | -0.0005 ± 0.0078 | -0.034 ± 0.0014 | -0.064 ± 0.0014 | -0.023 ± 0.028 | -0.0285 ± 0.03 | 0.008 ± 0.042 | -0.0035 ± 0.013 | -0.011 ± 0.0071 | -0.0145 ± 0.005 |
| BE3C:HLA-DR | -0.011 | -0.0125 ± 0.005 | 0.0065 ± 0.029 | -0.0005 ± 0.019 | 0.007 ± 0.0071 | 0.021 ± 0.021 | -0.017 ± 0.011 | -0.0095 ± 0.016 | 0.019 ± 0.023 | -0.03 ± 0.011 | -0.016 ± 0.0014 | -0.163 ± 0.013 | -0.0815 ± 0.022 | -0.039 ± 0.064 | -0.066 ± 0.02 | 0.0175 ± 0.026 | -0.0205 ± 0.033 | 0.0195 ± 0.011 | 0.035 ± 0.017 |
| BE3C:IL-1alpha | 0.0065 ± 0.022 | -0.0105 ± 0.0078 | 0.007 ± 0.02 | -0.0045 ± 0.037 | 0.014 ± 0.0042 | 0.0245 ± 0.0021 | -0.0275 ± 0.0064 | -0.0155 ± 0.018 | 0.0035 ± 0.023 | -0.001 ± 0.024 | -0.0185 ± 0.0035 | -0.0065 ± 0.057 | -0.069 ± 0.0042 | -0.032 ± 0.024 | -0.0625 ± 0.023 | -0.025 ± 0.0028 | -0.054 ± 0.0028 | -0.0395 ± 0.0092 | -0.0225 ± 0.036 |
| BF4T:CCL2/MCP-1 | 0.016 ± 0.0028 | 0.026 ± 0.018 | 0.0015 ± 0.016 | 0.031 ± 0.031 | 0.007 ± 0.054 | 0.035 ± 0.028 | -0.0175 ± 0.036 | 0.0495 ± 0.023 | 0.0305 ± 0.074 | -0.0295 ± 0.012 | -0.119 ± 0.016 | -0.227 ± 0.013 | -0.009 ± 0.023 | -0.0115 ± 0.029 | -0.154 ± 0.026 | -0.0085 ± 0.019 | -0.0165 ± 0.0035 | -0.017 ± 0.0014 | -0.0135 ± 0.018 |
| BF4T:CCL26/Eotaxin-3 | 0.028 ± 0.024 | 0.004 ± 0.0028 | 0.0185 ± 0.042 | 0.0195 ± 0.06 | 0.0005 ± 0.0035 | 0.0065 ± 0.0021 | 0.0125 ± 0.059 | 0.0235 ± 0.005 | 0.049 ± 0.044 | 0.0395 ± 0.025 | -0.013 ± 0.021 | -0.0675 ± 0.0064 | -0.212 ± 0.014 | -0.0345 ± 0.037 | -0.288 ± 0.0085 | -0.0755 ± 0.043 | -0.134 ± 0.086 | -0.115 ± 0.012 | -0.122 ± 0.03 |
| BF4T:CD54/ICAM-1 | 0.0175 ± 0.013 | 0.006 ± 0.0071 | 0.002 ± 0.013 | -0.005 ± 0.024 | -0.013 ± 0.027 | -0.0005 ± 0.0035 | -0.0035 ± 0.019 | 0.01 ± 0.013 | 0.02 ± 0.021 | -0.002 ± 0.023 | -0.03 ± 0.0014 | -0.0815 ± 0.0064 | -0.0175 ± 0.026 | -0.0035 ± 0.021 | -0.05 ± 0.014 | -0.003 ± 0.021 | -0.0105 ± 0.011 | -0.0205 ± 0.0021 | -0.0005 ± 0.015 |
| BF4T:CD90 | -0.0095 ± 0.026 | -0.0055 ± 0.019 | 0.0005 ± 0.0078 | -0.009 ± 0.011 | -0.006 ± 0.0099 | 0 ± 0.0028 | -0.011 ± 0.0085 | 0.0005 ± 0.00071 | 0.003 ± 0.0057 | -0.005 ± 0.0042 | -0.03 ± 0.0014 | -0.071 ± 0.0085 | -0.016 ± 0.0028 | -0.0095 ± 0.0035 | -0.045 ± 0.0028 | 0.009 ± 0.018 | -0.002 ± 0.023 | -0.005 ± 0.018 | 0.0025 ± 0.015 |
| BF4T:CD106/VCAM-1 | 0.018 ± 0.011 | -0.011 ± 0.031 | -0.0445 ± 0.0021 | -0.005 ± 0.023 | -0.012 ± 0.0071 | -0.0015 ± 0.04 | -0.019 ± 0.085 | 0.0225 ± 0.029 | 0.021 ± 0.081 | 0.0765 ± 0.0092 | -0.018 ± 0.037 | -0.0835 ± 0.043 | -0.032 ± 0.041 | -0.084 ± 0.086 | -0.129 ± 0.035 | -0.019 ± 0.011 | -0.013 ± 0.028 | -0.02 ± 0.0085 | -0.049 ± 0.0042 |
| BF4T:CXCL8/IL-8 | -0.0085 ± 0.03 | 0.028 ± 0.028 | 0.0115 ± 0.0021 | 0.04 ± 0.069 | 0.014 ± 0.086 | 0.0245 ± 0.028 | 0.037 ± 0.083 | 0.0505 ± 0.07 | 0.0685 ± 0.046 | -0.0155 ± 0.026 | -0.0265 ± 0.026 | -0.0245 ± 0.03 | 0.0815 ± 0.026 | 0.048 ± 0.0028 | 0.0165 ± 0.00071 | -0.0315 ± 0.04 | -0.0495 ± 0.046 | -0.0715 ± 0.033 | -0.0435 ± 0.00071 |
| BF4T:IL-1alpha | -0.0005 ± 0.0092 | -0.0135 ± 0.019 | 0.003 ± 0.031 | 0.007 ± 0.013 | 0.008 ± 0.028 | -0.003 ± 0.023 | -0.02 ± 0.0085 | 0.03 ± 0.044 | 0.0195 ± 0.018 | 0.0095 ± 0.012 | -0.002 ± 0.025 | 0.003 ± 0.051 | -0.014 ± 0.023 | -0.043 ± 0.0099 | -0.029 ± 0.025 | 0.0045 ± 0.028 | -0.001 ± 0.013 | -0.0165 ± 0.013 | 0.004 ± 0.023 |
| BF4T:Keratin 8/18 | -0.0015 ± 0.0064 | -0.032 ± 0.051 | -0.0015 ± 0.03 | 0.0035 ± 0.032 | 0.001 ± 0.05 | 0.013 ± 0.045 | -0.046 ± 0.033 | 0.006 ± 0.044 | 0.0235 ± 0.023 | -0.0025 ± 0.012 | -0.005 ± 0.0057 | -0.0335 ± 0.015 | 0 ± 0.014 | -0.0155 ± 0.016 | 0.0075 ± 0.023 | 0.011 ± 0.047 | -0.0015 ± 0.013 | -0.0105 ± 0.019 | -0.0025 ± 0.015 |
